Assay results: PubChem BioAssay AID214 (DTP/NCI, 2004)
Where “and” joins values, the source holds several entries; their conditions need not be identical. Equal values may be shown once. Results filed as inconclusive are left out.

Test system: B6C3F1 mice, colon carcinoma 38 s.c., T/C
Experiment: NCI In Vivo Anticancer Drug Screen. Data for tumor model Colon Carcinoma 38 (subcutaneous) in B6C3F1 mice
Settings: higher = larger tumour
Method: The antitumor activity of compounds was measured in mice bearing transplantable tumors. Survival or tumor size were measured and the results are expressed as the measurement made in the treated group (T) divided by the measurement made in the vehicle treated control group (C). The tumor model used in this assay is Colon Carcinoma 38 (subcutaneous) in B6C3F1 mice

[1] = endpoint: median tumor weight (est.), dose: 100.0 mg/kg/injection, schedule: Q07DX002 (ip), vehicle: saline with Tween-80
[2] = endpoint: median tumor weight (est.), dose: 200.0 mg/kg/injection, schedule: Q07DX002 (ip), vehicle: saline with Tween-80
[3] = endpoint: median tumor weight (est.), dose: 400.0 mg/kg/injection, schedule: Q07DX002 (ip), vehicle: saline with Tween-80
[4] = endpoint: median tumor weight (est.), dose: 800.0 mg/kg/injection, schedule: Q07DX002 (ip), vehicle: saline with Tween-80
[5] = endpoint: median tumor weight (est.), dose: 50.0 mg/kg/injection, schedule: Q07DX002 (ip), vehicle: saline with Tween-80
[6] = endpoint: median tumor weight (est.), dose: 100.0 mg/kg/injection, schedule: Q07DX002 (ip), vehicle: Klucel (hydroxypropylcellulose) (HPC)
[7] = endpoint: median tumor weight (est.), dose: 50.0 mg/kg/injection, schedule: Q07DX002 (ip), vehicle: Klucel (hydroxypropylcellulose) (HPC)
[8] = endpoint: median tumor weight (est.), dose: 200.0 mg/kg/injection, schedule: Q07DX002 (ip), vehicle: Klucel (hydroxypropylcellulose) (HPC)
[9] = endpoint: median tumor weight (est.), dose: 400.0 mg/kg/injection, schedule: Q07DX002 (ip), vehicle: Klucel (hydroxypropylcellulose) (HPC)

For `NC(CSC(c1ccccc1)(c1ccccc1)c1ccccc1)C(=O)O` (centres undefined), the T/C (endpoint: median tumor weight (est.), dose: 32.0 mg/kg/injection, schedule: Q07DX002 (ip), vehicle: saline with Tween-80) was 87 % of control, the T/C (endpoint: median tumor weight (est.), dose: 32.0 mg/kg/injection, schedule: Q07DX003 (ip), vehicle: saline with Tween-80) was 46 % of control and the T/C (endpoint: median tumor weight (est.), dose: 64.0 mg/kg/injection, schedule: Q07DX002 (ip), vehicle: saline with Tween-80) was 81 % of control. The T/C (endpoint: median tumor weight (est.), dose: 64.0 mg/kg/injection, schedule: Q07DX003 (ip), vehicle: saline with Tween-80) was 105 % of control, the T/C (endpoint: median tumor weight (est.), dose: 128.0 mg/kg/injection, schedule: Q07DX002 (ip), vehicle: saline with Tween-80) was 63 % of control and the T/C (endpoint: median tumor weight (est.), dose: 128.0 mg/kg/injection, schedule: Q07DX003 (ip), vehicle: saline with Tween-80) was 72 % of control. The T/C (endpoint: median tumor weight (est.), dose: 256.0 mg/kg/injection, schedule: Q07DX002 (ip), vehicle: saline with Tween-80) was 30 % of control, the T/C (endpoint: median tumor weight (est.), dose: 256.0 mg/kg/injection, schedule: Q07DX003 (ip), vehicle: saline with Tween-80) was 45 % of control and the T/C (endpoint: median tumor weight (est.), dose: 512.0 mg/kg/injection, schedule: Q07DX002 (ip), vehicle: saline with Tween-80) was 2 % of control.
With `O=C(CCBr)N1CCN(C(=O)CCBr)CC1` the T/C (endpoint: median tumor weight (est.), dose: 40.0 mg/kg/injection, schedule: Q07DX002 (ip), vehicle: saline with Tween-80) was 81 % of control, the T/C (endpoint: median tumor weight (est.), dose: 80.0 mg/kg/injection, schedule: Q07DX002 (ip), vehicle: saline with Tween-80) was 20 % of control and 33 % of control and the T/C (endpoint: median tumor weight (est.), dose: 320.0 mg/kg/injection, schedule: Q07DX002 (ip), vehicle: saline with Tween-80) was 6 % of control.
For `CC(=O)N(C)O`, the T/C [1] was 124 % of control, the T/C [2] was 116 % of control and the T/C [3] was 91 % of control. The T/C [4] was 101 % of control.
`ClCCCN1CCN(CCCl)CC1` was tested, and the T/C (endpoint: median tumor weight (est.), dose: 5.0 mg/kg/injection, schedule: Q07DX002 (ip), vehicle: saline) was 101 % of control, the T/C (endpoint: median tumor weight (est.), dose: 10.0 mg/kg/injection, schedule: Q07DX002 (ip), vehicle: saline) was 83 % of control and the T/C (endpoint: median tumor weight (est.), dose: 20.0 mg/kg/injection, schedule: Q07DX002 (ip), vehicle: saline) was 44 % of control.
In the case of `COc1ccc2c(ccc3oc([N+](=O)[O-])cc32)c1`, the T/C [5] is reported as 101 % of control, the T/C [1] is reported as 116 % of control and the T/C [2] is reported as 90 % of control. For the same compound, the T/C [3] was 92 % of control.
`ClCc1ccc2ccccc2n1` was tested, and the T/C [5] was 93 % of control, the T/C [1] was 86 % of control and the T/C [2] was 89 % of control.
`O=C(O)Cc1cccc2c(=O)c(-c3ccccc3)c(-c3ccccc3)oc12` was tested, and the T/C [6] was 11 % of control.
In the case of `COc1nc(C(Cl)(Cl)Cl)c(Cl)c(OC)c1Cl`, the T/C [7] is reported as 103 % of control, the T/C [6] is reported as 109 % of control and the T/C [8] is reported as 104 % of control. For the same compound, the T/C [9] was 47 % of control.
With `Oc1cc2ccccc2c(-c2c(O)c(O)cc3ccccc23)c1O` the T/C [2] was 70 % of control, the T/C [3] was 62 % of control and the T/C [4] was 104 % of control.
In the case of `Oc1c(Cl)cc(Cl)cc1C=NCCSc1ccc(Cl)cc1`, the T/C [7] is reported as 118 % of control, the T/C [6] is reported as 81 % of control and the T/C [8] is reported as 109 % of control. The T/C [9] was 63 % of control.
With `CC[C@H](CC[C@@H](C)C1CC[C@H]2[C@@H]3CC=C4C[C@@H](OP(=O)(N5CC5)N5CC5)CC[C@]4(C)[C@H]3CC[C@]12C)C(C)C` (some centres undefined) the T/C (endpoint: median tumor weight (est.), dose: 225.0 mg/kg/injection, schedule: Q07DX002 (ip), vehicle: saline with Tween-80) was 246 % of control, the T/C (endpoint: median tumor weight (est.), dose: 450.0 mg/kg/injection, schedule: Q07DX002 (ip), vehicle: saline with Tween-80) was 205 % of control and the T/C (endpoint: median tumor weight (est.), dose: 900.0 mg/kg/injection, schedule: Q07DX002 (ip), vehicle: saline with Tween-80) was 115 % of control.
In the case of `NC1(C(=O)O)CCCC1`, the T/C (endpoint: median tumor weight (est.), dose: 50.0 mg/kg/injection, schedule: Q07DX003 (ip), vehicle: saline) is reported as 69 % of control, the T/C (endpoint: median tumor weight (est.), dose: 100.0 mg/kg/injection, schedule: Q07DX003 (ip), vehicle: saline) is reported as 81 % of control and the T/C (endpoint: median tumor weight (est.), dose: 200.0 mg/kg/injection, schedule: Q07DX003 (ip), vehicle: saline) is reported as 39 % of control.
With `NC(=O)c1c[se]c(C2OC(CO)C(O)C2O)n1` (centres undefined) the T/C (endpoint: median tumor weight (est.), dose: 50.0 mg/kg/injection, schedule: Q07DX002 (ip), vehicle: saline) was 90 % of control, the T/C (endpoint: median tumor weight (est.), dose: 100.0 mg/kg/injection, schedule: Q07DX002 (ip), vehicle: saline) was 87 % of control and the T/C (endpoint: median tumor weight (est.), dose: 200.0 mg/kg/injection, schedule: Q07DX002 (ip), vehicle: saline) was 84 % of control. For the same compound, the T/C (endpoint: median tumor weight (est.), dose: 400.0 mg/kg/injection, schedule: Q07DX002 (ip), vehicle: saline) was 92 % of control and the T/C (endpoint: median tumor weight (est.), dose: 800.0 mg/kg/injection, schedule: Q07DX002 (ip), vehicle: saline) was 56 % of control.
For `Cc1cc(NS(=O)(=O)c2ccc(N=Nc3cc(N=Nc4ccc(S(=O)(=O)Nc5cc(C)nc(C)n5)cc4)c4c(NC(=O)C(Cl)Cl)cccc4c3OC(=O)C(Cl)Cl)cc2)nc(C)n1` (tested in a mixture with another compound), the T/C (endpoint: median tumor weight (est.), dose: 25.0 mg/kg/injection, schedule: Q07DX002 (ip), vehicle: suspension in saline) was 111 % of control and the T/C (endpoint: median tumor weight (est.), dose: 400.0 mg/kg/injection, schedule: Q07DX002 (ip), vehicle: suspension in saline) was 114 % of control.
In the case of `O=S(=O)([O-])c1ccc(-c2c3nc(c(-c4ccc(S(=O)(=O)[O-])cc4)c4ccc([n-]4)c(-c4ccc(S(=O)(=O)[O-])cc4)c4nc(c(-c5ccc(S(=O)(=O)[O-])cc5)c5ccc2[n-]5)C=C4)C=C3)cc1.[Mn+3].[Na+]`, the T/C (endpoint: median tumor weight change, dose: 226.9 mg/kg/injection, schedule: Q07DX002 (iv), vehicle: water) is reported as 67 % of control, the T/C (endpoint: median tumor weight change, dose: 340.9 mg/kg/injection, schedule: Q07DX002 (iv), vehicle: water) is reported as 77 % of control and the T/C (endpoint: median tumor weight change, dose: 515.0 mg/kg/injection, schedule: Q07DX002 (iv), vehicle: water) is reported as 110 % of control.
`O=c1[nH]cnc2nc(/N=N/SCCO)[nH]c12` was tested, and the T/C [7] was 115 % of control, the T/C [6] was 114 % of control and the T/C [8] was 101 % of control.
`OC(CBr)C(O)C(O)C(O)CBr` (centres undefined) was tested, and the T/C (endpoint: median tumor weight (est.), dose: 25.0 mg/kg/injection, schedule: Q07DX002 (ip), vehicle: Klucel (hydroxypropylcellulose) (HPC)) was 83 % of control and the T/C [7] was 83 % of control.
